The source of these data is patent US6642227B2, “Inhibitors of c-Jun N-terminal kinases (JNK) and other protein kinases” (Vertex Pharmaceuticals Incorporated, priority 2001, dated 2003).

A word on the pKi: it is the negative decadic logarithm of the Ki, by convention in mol/L.

pKi: −log10 of the molar value.

The target in assay [1] is T1, human Src kinase (Homo sapiens, UniProt P12931).
T1 construct: full length recombinant human Src kinase; purchased Upstate Biotechnology 14-117; host or cells: baculovirus-infected cells
As to the kind of experiment: Src inhibition assay (A: radioactivity-based or B: spectrophotometric coupled-enzyme assay). In kind it is biochemical. As to conditions: assay A or B not specified; inhibitor concentration not given. As to the method: The compounds were evaluated as inhibitors of human Src kinase using either a radioactivity-based assay or spectrophotometric assay.
The compounds were assayed as inhibitors of full length recombinant human Src kinase (from Upstate Biotechnology, cat. no. 14-117) expressed and purified from baculo viral cells. Src kinase activity was monitored by following the incorporation of ^33p from ATP into the tyrosine of a random poly Glu-Tyr polymer substrate of composition, Glu:Tyr=4:1 (Sigma, cat. no. P-0275). The following were the final concentrations of the assay components: 0.05 M HEPES, pH 7.6, 10 mM MgCl2, 2 mM DTT, 0.25 mg/ml BSA, 10 μM ATP (1-2 uCi ^33P-ATP per reaction), 5 mg/ml poly Glu-Tyr, and 1-2 units of recombinant human Src kinase. In a typical assay, all the reaction components with the exception of ATP were pre-mixed and aliquoted into assay plate wells.
Inhibitors dissolved in DMSO were added to the wells to give a final DMSO concentration of 2.5%. The assay plate was incubated at 30° C. for 10 min before initiating the reaction with ^33P-ATP. After 20 min of reaction, the reactions were quenched with 150 μl of 10% trichloroacetic acid (TCA) containing 20 mM Na3PO4. The quenched samples were then transferred to a 96-well filter plate (Whatman, UNI-Filter GF/F Glass Fiber Filter, cat no. 7700-3310) installed on a filter plate vacuum manifold. Filter plates were washed four times with 10% TCA containing 20 mM Na3PO4 and then 4 times with methanol. 200 μl of scintillation fluid was then added to each well. The plates were sealed and the amount of radioactivity associated with the filters was quantified on a TopCount scintillation counter. The radioactivity incorporated was plotted as a function of the inhibitor concentration. The data was fitted to a competitive inhibition kinetics model to get the Ki for the compound.
The ADP produced from ATP by the human recombinant Src kinase-catalyzed phosphorylation of poly Glu-Tyr substrate was quanitified using a coupled enzyme assay (Fox et al (1998) Protein Sci 7, 2249). In this assay one molecule of NADH is oxidised to NAD for every molecule of ADP produced in the kinase reaction. The disappearance of NADH can be conveniently followed at 340 nm.
The following were the final concentrations of the assay components: 0.025 M HEPES, pH 7.6, 10 mM MgCl2, 2 mM DTT, 0.25 mg/ml poly Glu-Tyr, and 25 nM of recombinant human Src kinase. Final concentrations of the components of the coupled enzyme system were 2.5 mM phosphoenolpyruvate, 200 μM NADH, 30 μg/ml pyruvate kinase and 10 μg/ml lactate dehydrogenase.
In a typical assay, all the reaction components with the exception of ATP were pre-mixed and aliquoted into assay plate wells. Inhibitors dissolved in DMSO were added to the wells to give a final DMSO concentration of 2.5%. The assay plate was incubated at 30 C. for 10 min before initiating the reaction with 100 μM ATP. The absorbance change at 340 nm with time, the rate of the reaction, was monitored on a molecular devices plate reader. The data of rate as a function of the inhibitor concentration was fitted to compettive inhibition kinetics model to get the Ki for the compound.

The target of assay [2] is human Lck kinase (UniProt P06239). As to the kind of experiment: Lck inhibition assay (A: radioactivity-based or B: spectrophotometric coupled-enzyme assay). It is filed as biochemical. The settings on record: read-out: Lck Activity (Ki rating). The procedure, abridged: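 Two formats. Radiometric: full-length bovine thymus Lck, poly(Glu:Tyr 4:1) 5 mg/ml, 10 μM ATP with ^33P-ATP, HEPES pH 7.6, 10 min preincubation then 20 min at 30 °C, TCA-quenched filter counting. Coupled: 50 nM recombinant human Lck, 150 μM ATP, NADH loss at 340 nm. Ki from competitive-inhibition fit.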

T1 sequence (P12931 whole entry): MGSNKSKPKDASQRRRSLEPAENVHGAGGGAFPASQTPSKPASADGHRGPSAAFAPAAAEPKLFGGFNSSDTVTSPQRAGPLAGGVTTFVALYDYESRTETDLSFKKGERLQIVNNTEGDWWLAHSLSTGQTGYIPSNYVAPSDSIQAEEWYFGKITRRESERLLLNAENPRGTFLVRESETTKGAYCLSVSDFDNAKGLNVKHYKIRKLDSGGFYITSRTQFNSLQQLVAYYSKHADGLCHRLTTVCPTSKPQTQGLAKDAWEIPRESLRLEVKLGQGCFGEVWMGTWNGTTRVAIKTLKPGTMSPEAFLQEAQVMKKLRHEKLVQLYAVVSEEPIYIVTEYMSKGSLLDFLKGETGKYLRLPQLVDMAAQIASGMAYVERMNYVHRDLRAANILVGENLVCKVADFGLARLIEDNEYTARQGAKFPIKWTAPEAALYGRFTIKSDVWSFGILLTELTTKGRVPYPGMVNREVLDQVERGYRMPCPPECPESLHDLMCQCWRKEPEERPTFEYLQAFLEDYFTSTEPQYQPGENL

Consider `CSc1sc(-c2ccnc(Nc3ccccc3)n2)c(-c2ccc(Cl)cc2)c1C#N` [IIa-10, 2-Methylsulfanyl-5-(2-phenylamino-pyrimidin-4-yl)-4-(4-chloro-phenyl)-thiophene-3-carbonitrile], for which the “Src Activity (percent inhibition class D-F)” value in assay [1] was “F (compounds having an activity designated as “F” provided a provided a percent inhibition of between 67% and 100%)”. Further, the pKi in assay [2] was above 7.00.

For the compound `CCOc1sc(-c2ccnc(Nc3ccccc3)n2)c(-c2ccc(C)cc2)c1C#N` [IIa-15, 2-Ethoxy-5-(2-phenylamino-pyrimidin-4-yl)-4-p-tolyl-thiophene-3-carbonitrile], the “Src Activity (percent inhibition class D-F)” value in assay [1] is “F (compounds having an activity designated as “F” provided a provided a percent inhibition of between 67% and 100%)”. Also, the negative logarithm of the Ki (pKi) in assay [2] is above 7.00.

Turning to `CCOc1sc(-c2ccnc(Nc3ccccc3)n2)c(-c2ccc(Cl)cc2)c1C#N` [IIa-11, 2-Ethoxy-5-(2-phenylamino-pyrimidin-4-yl)-4-(4-chloro-phenyl)-thiophene-3-carbonitrile], the “Src Activity (percent inhibition class D-F)” value in assay [1] was “F (compounds having an activity designated as “F” provided a provided a percent inhibition of between 67% and 100%)”. Besides, the negative-log Ki (pKi) in assay [2] was 6.00 to 7.00.

`CSc1sc(-c2ccnc(Nc3ccccc3)n2)c(-c2ccc(C)cc2)c1C#N` [IIa-14, 2-Methylsulfanyl-5-(2-phenylamino-pyrimidin-4-yl)-4-p-tolyl-thiophene-3-carbonitrile]: the “Src Activity (percent inhibition class D-F)” value in assay [1] was “F (compounds having an activity designated as “F” provided a provided a percent inhibition of between 67% and 100%)”. Moreover, the negative logarithm of the Ki (pKi) in assay [2] was above 7.00.
